From patent US10669272B2, “Substituted naphthyridinone compounds useful as T cell activators” (BRISTOL-MYERS SQUIBB COMPANY, priority 2018, dated 2020)
Read-outs that look alike come from different tables or passages of the source.

Tests used:
[1] = tested on: naïve human CD8 T cells; experiment: Human CD8 T cells IFN-γ assay; type: cell-based; conditions: normalized to 3 μM reference compound with anti-CD3 plus anti-CD28 as 100% activation, read-out: HuCD8 INFG Normalized EC50;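 also: Naïve human CD8 T cells stimulated with plate-bound anti-CD3 and soluble anti-CD28, IFN-γ in supernatant quantified by AlphaLISA and converted to pg/mL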
[2] = target: T1, human DGKα (Homo sapiens, UniProt P23743); experiment: DGKα LIPGLO assay (extruded liposome substrate), in vitro DGK inhibition; type: biochemical; conditions: liposome (LIPGLO) assay; read-out: DGKa LIPGLO IC50
T1 construct: TVMV protease cleavage site (C); Hexa-His (C); made in house; host or cells: Sf9 insect cells (baculovirus, Bac-to-Bac)
T1 sequence (P23743 with tags, fused parts or gaps): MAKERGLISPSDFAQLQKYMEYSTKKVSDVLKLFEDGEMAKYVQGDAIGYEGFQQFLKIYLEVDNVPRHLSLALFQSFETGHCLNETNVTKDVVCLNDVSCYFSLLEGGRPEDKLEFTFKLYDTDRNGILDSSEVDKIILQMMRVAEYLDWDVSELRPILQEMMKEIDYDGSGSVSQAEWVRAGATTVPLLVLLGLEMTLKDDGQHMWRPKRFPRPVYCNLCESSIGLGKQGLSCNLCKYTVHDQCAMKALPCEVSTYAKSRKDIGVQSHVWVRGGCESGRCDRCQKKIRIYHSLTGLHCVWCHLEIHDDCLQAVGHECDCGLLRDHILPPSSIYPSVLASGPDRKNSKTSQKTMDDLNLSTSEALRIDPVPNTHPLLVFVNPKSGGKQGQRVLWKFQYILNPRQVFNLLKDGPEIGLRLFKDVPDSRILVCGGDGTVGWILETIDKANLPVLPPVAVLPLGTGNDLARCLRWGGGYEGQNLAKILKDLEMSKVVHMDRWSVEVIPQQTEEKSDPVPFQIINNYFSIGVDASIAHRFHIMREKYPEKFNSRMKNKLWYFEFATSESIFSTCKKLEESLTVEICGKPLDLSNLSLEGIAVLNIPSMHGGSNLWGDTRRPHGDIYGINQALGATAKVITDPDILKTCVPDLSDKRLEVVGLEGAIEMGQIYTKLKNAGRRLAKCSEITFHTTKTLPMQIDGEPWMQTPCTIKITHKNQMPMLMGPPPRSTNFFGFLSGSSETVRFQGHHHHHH

[3] = target: T2, human DGKζ (Homo sapiens, UniProt Q13574); experiment: DGKζ LIPGLO assay (extruded liposome substrate), in vitro DGK inhibition; type: biochemical; conditions: liposome (LIPGLO) assay; read-out: DGKz LIPGLO IC50
T2 construct: TVMV protease cleavage site (C); Hexa-His (C); made in house; host or cells: Sf9 insect cells (baculovirus, Bac-to-Bac)
T2 sequence (Q13574 with tags, fused parts or gaps isoform Q13574-4): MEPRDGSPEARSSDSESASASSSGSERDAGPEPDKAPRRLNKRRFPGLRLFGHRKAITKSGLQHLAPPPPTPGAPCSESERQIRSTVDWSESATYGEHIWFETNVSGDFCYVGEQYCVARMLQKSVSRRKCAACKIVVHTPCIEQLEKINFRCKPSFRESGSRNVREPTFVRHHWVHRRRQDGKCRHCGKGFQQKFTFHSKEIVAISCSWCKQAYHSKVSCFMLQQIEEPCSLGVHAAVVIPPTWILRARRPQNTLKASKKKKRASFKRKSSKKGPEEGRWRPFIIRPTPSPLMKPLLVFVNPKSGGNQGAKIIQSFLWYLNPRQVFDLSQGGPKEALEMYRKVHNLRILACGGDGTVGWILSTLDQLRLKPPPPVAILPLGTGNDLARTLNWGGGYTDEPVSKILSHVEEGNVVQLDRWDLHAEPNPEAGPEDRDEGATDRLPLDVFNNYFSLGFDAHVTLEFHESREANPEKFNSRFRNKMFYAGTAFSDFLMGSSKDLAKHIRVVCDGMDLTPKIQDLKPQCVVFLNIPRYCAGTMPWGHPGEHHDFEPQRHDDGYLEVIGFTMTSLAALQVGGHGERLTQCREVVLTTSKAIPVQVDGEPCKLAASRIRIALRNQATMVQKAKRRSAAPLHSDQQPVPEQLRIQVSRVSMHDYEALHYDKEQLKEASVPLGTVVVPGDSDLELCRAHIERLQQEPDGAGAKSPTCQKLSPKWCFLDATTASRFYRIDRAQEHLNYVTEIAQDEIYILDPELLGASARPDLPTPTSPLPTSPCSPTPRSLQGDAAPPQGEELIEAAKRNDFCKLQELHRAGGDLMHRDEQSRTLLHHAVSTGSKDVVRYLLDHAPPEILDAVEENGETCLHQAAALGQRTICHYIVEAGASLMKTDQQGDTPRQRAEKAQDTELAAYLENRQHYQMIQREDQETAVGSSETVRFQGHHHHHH

[4] = tested on: Human venous whole blood; experiment: Human whole blood IFN-γ assay; type: cell-based; conditions: human whole blood, normalized to 3 μM reference compound with anti-CD3 plus anti-CD28 as 100% activation, read-out: INFg Whole Blood Normalized Agonist EC50;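 also: blood from healthy donors exposed to compound for 1 h before stimulation with anti-CD3 and anti-CD28 at 1 µg/mL each, IFN-γ quantified in supernatant by AlphaLISA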
Method: Human Whole Blood IFN-γ Assay
Human venous whole blood (22.5 μL per well), obtained from healthy donors, was pre-treated with compounds for one hour at 37° C. in a humidified 95% air/5% CO2 incubator. The blood was stimulated with 2.5 μL anti-human CD3 and anti-CD28 mAb at a final concentration of 1 μg/mL each for 24 hours at 37° C. IFN-γ in the supernatants was measured using AlphLISA kit (Cat # AL217).

| Compound | EC50 ([1]; Homo sapiens, T-cell, 20 h) | IC50 [2] | IC50 [3] | EC50 [1] | EC50 ([4]; Homo sapiens, 24 h) | EC50 [4] |
| --- | --- | --- | --- | --- | --- | --- |
| Cn1c(=O)cc(N2CCN(C(c3ccc(F)cc3)c3ccc(F)cc3)C(C(=O)NC3CC3)C2)c2nc(C#N)ccc21 (racemic) [Example 46, 1-(bis(4-fluorophenyl)methyl)-4-(6-cyano-1-methyl-2-oxo-1,2-dihydro-1,5-naphthyridin-4-yl)-N-cyclopropylpiperazine-2-carboxamide] | 4.7 µM | 240 µM | 3.5 µM |  |  |  |
| Cn1c(=O)cc(N2CCN(C(c3ccc(F)cc3)c3ccc(F)cc3)CC2CO)c2nc(C#N)ccc21 (racemic) [Example 146, 8-(4-(bis(4-fluorophenyl)methyl)-2-(hydroxymethyl)piperazin-1-yl)-5-methyl-6-oxo-5,6-dihydro-1,5-naphthyridine-2-carbonitrile] | 0.66 µM | 84 µM | 14 µM |  |  |  |
| Cn1c(=O)cc(N2CCN(C(c3ccc(F)cc3)c3ccc(F)cc3)C(C(N)=O)C2)c2nc(C#N)ccc21 (single isomer, unassigned) [Example 41, 1-(bis(4-fluorophenyl)methyl)-4-(6-cyano-1-methyl-2-oxo-1,2-dihydro-1,5-naphthyridin-4-yl)piperazine-2-carboxamide] |  | 14 µM | 46 µM | 1.5 µM |  |  |
| CC[C@@H]1CN(c2cc(=O)n(C)c3ccc(C#N)nc23)[C@@H](C)CN1Cc1ccc(OC(F)(F)F)c(F)c1 [Example 1332] |  | 0.53 µM | 0.61 µM |  | 4.4 µM |  |
| C[C@@H]1CN(c2cc(=O)[nH]c3ccc(C#N)nc23)[C@@H](C)CN1C(c1ccc(F)cc1)c1ccc(C#N)cc1 (stereo partly drawn) [Example 1336, 8-((2S,5R)-4-((4-cyanophenyl)(4-fluorophenyl)methyl)-2,5-dimethylpiperazin-1-yl)-6-oxo-5,6-dihydro-1,5-naphthyridine-2-carbonitrile] |  | 1.8 µM | 14 µM |  | 11 µM |  |
| CC[C@@H]1CN(c2cc(=O)n(C)c3ccc(C#N)nc23)[C@@H](C)CN1C(C)c1ccc(OC(F)F)cc1 (stereo partly drawn) [Example 1343] |  | 0.0044 µM | 0.016 µM |  | 0.051 µM |  |
| CC[C@@H]1CN(c2cc(=O)n(C)c3ccc(C#N)nc23)[C@@H](C)CN1C(C)c1ccc(OC(F)F)cc1 (stereo partly drawn) [Example 1344] |  | 0.0044 µM | 0.016 µM |  |  | 0.051 µM |
| CC[C@@H]1CN(c2cc(=O)n(C)c3ccc(C#N)nc23)[C@@H](CC)CN1Cc1cc(F)c(F)c(F)c1 [Example 1354] |  | 1.6 µM | 0.84 µM |  | 1.2 µM |  |
| CC[C@@H]1CN(c2cc(=O)n(C)c3ccc(C#N)nc23)[C@@H](CC)CN1Cc1ccc(OC(F)(F)F)cc1 [Example 1363] |  | 0.045 µM | 0.55 µM |  | 0.43 µM |  |
| CC[C@@H]1CN(c2cc(=O)n(C)c3ccc(C#N)nc23)[C@@H](CC)CN1Cc1ccc(OC(F)(F)F)cc1F [Example 1370] |  | 0.023 µM | 0.14 µM |  | 0.24 µM |  |
| CC[C@H]1CN(C(C)c2cc(F)cc(OC(F)(F)F)c2)[C@H](C)CN1c1cc(=O)n(C)c2ccc(C#N)nc12 (stereo partly drawn) [Example 1384] |  | 9.4 µM | 0.26 µM |  | 8 µM |  |
| CC[C@H]1CN(C(C)c2cc(F)cc(OC(F)(F)F)c2)[C@H](C)CN1c1cc(=O)n(C)c2ccc(C#N)nc12 (stereo partly drawn) [Example 1385] |  | 5.9 µM | 0.7 µM |  |  | 5.3 µM |
| C[C@H]1CN(Cc2ccc3c(c2)OC(F)(F)O3)[C@H](CO)CN1c1cc(=O)n(C)c2ccc(C#N)nc12 [Example 1390] |  | 4 µM | 15 µM |  | 14 µM |  |
| COC[C@@H]1CN(c2cc(=O)n(C)c3ccc(C#N)nc23)[C@@H](C)CN1C(c1ccc(F)cc1)c1ccc(C(F)(F)F)cn1 (stereo partly drawn) [Example 1401] |  | 0.3 µM | 0.049 µM |  | 0.47 µM |  |
| COC[C@@H]1CN(c2cc(=O)n(C)c3ccc(C#N)nc23)[C@@H](C)CN1C(c1ccc(F)cc1)c1ccc(C(F)(F)F)cn1 (stereo partly drawn) [Example 1402] |  | 0.3 µM | 0.1 µM |  |  | 0.26 µM |
| CCOC[C@@H]1CN(c2cc(=O)n(C)c3ccc(C#N)nc23)[C@@H](C)CN1C(c1ccc(F)cc1)c1ccc(C(F)(F)F)cn1 (stereo partly drawn) [Example 1403] |  | 1.1 µM | 0.045 µM |  |  | 1.9 µM |
| CCOC[C@@H]1CN(c2cc(=O)n(C)c3ccc(C#N)nc23)[C@@H](C)CN1C(c1ccc(F)cc1)c1ccc(C(F)(F)F)cn1 (stereo partly drawn) [Example 1404] |  | 0.9 µM | 0.05 µM |  |  | 0.9 µM |
| CC[C@H]1CN(Cc2ccc3c(c2)OC(F)(F)O3)[C@H](COC)CN1c1cc(=O)n(C)c2ccc(C#N)nc12 [Example 1407] |  | 7.1 µM | 0.35 µM |  | 4.4 µM |  |

| Compound | EC50 ([1]; Homo sapiens, T-cell, 20 h) | IC50 [2] | IC50 [3] | EC50 [1] | EC50 ([4]; Homo sapiens, 24 h) | EC50 [4] |
| --- | --- | --- | --- | --- | --- | --- |
| C[C@H]1CN(C(c2ccc(F)cc2)c2ccc(F)cc2)[C@H](CNS(C)(=O)=O)CN1c1cc(=O)n(C)c2ccc(C#N)nc12 [Example 1410, N-(((2S,5S)-1-(bis(4-fluorophenyl)methyl)-4-(6-cyano-1-methyl-2-oxo-1,2-dihydro-1,5-naphthyridin-4-yl)-5-methylpiperazin-2-yl)methyl)methanesulfonamide] |  | 22 µM | 0.098 µM |  | 1.8 µM |  |
| CC(c1ccc(OC(F)(F)F)cc1)N1C[C@H](C)N(c2cc(=O)n(C)c3ccc(C#N)nc23)C[C@H]1CN1CCN(C)CC1 (stereo partly drawn) [Example 1417] |  | 26 µM | 65 µM |  | 11 µM |  |
| CC(c1ccc(OC(F)(F)F)cc1)N1C[C@H](C)N(c2cc(=O)n(C)c3ccc(C#N)nc23)C[C@H]1CN1CCN(C)CC1 (stereo partly drawn) [Example 1418] |  | 67 µM | 62 µM |  |  | 20 µM |
| COC[C@H]1CN(C(c2ccc(F)cc2)c2ccc(F)cc2)[C@H](C)CN1c1cc(=O)n(C)c2ccc(C#N)nc12 [Example 1421, 8-((2R,5R)-4-(bis(4-fluorophenyl)methyl)-2-(methoxymethyl)-5-methylpiperazin-1-yl)-5-methyl-6-oxo-5,6-dihydro-1,5-naphthyridine-2-carbonitrile] |  | 2.1 µM | 0.47 µM |  | 1.5 µM |  |
| C[C@@H]1CN(c2cc(=O)n(C)c3ccc(C#N)nc23)[C@@H](C)CN1Cc1cc(C#N)cs1 [Example 1422, 8-((2S,5R)-4-((4-cyanothiophen-2-yl)methyl)-2,5-dimethylpiperazin-1-yl)-5-methyl-6-oxo-5,6-dihydro-1,5-naphthyridine-2-carbonitrile] |  | 0.29 µM | 4.2 µM |  | 6.9 µM |  |
| C[C@@H]1CN(c2cc(=O)n(C)c3ccc(C#N)nc23)[C@@H](C)CN1Cc1nnnn1C1CC1 [Example 1423] |  | 50 µM | 44 µM |  | 20 µM |  |
| Cc1cc(CN2C[C@H](C)N(c3cc(=O)n(C)c4ccc(C#N)nc34)C[C@H]2C)no1 [Example 1424] |  | 3.7 µM | 14 µM |  | 20 µM |  |
| C[C@@H]1CN(c2cc(=O)n(C)c3ccc(C#N)nc23)[C@@H](C)CN1Cc1cc(-c2ccccc2)no1 [Example 1425] |  | 5.9 µM | 4.9 µM |  | 20 µM |  |
| Cc1noc(C)c1CN1C[C@H](C)N(c2cc(=O)n(C)c3ccc(C#N)nc23)C[C@H]1C [Example 1426] |  | 33 µM | 4 µM |  | 20 µM |  |
| C[C@@H]1CN(c2cc(=O)n(C)c3ccc(C#N)nc23)[C@@H](C)CN1Cc1cc(-c2ccccc2C#N)no1 [Example 1427] |  | 21 µM | 5.2 µM |  | 20 µM |  |
| C[C@@H]1CN(c2cc(=O)n(C)c3ccc(C#N)nc23)[C@@H](C)CN1Cc1cnoc1 [Example 1428] |  | 34 µM | 53 µM |  | 20 µM |  |
| Cc1oncc1CN1C[C@H](C)N(c2cc(=O)n(C)c3ccc(C#N)nc23)C[C@H]1C [Example 1431] |  | 59 µM | 12 µM |  | 13 µM |  |
| CC(C)c1nc(CN2C[C@H](C)N(c3cc(=O)n(C)c4ccc(C#N)nc34)C[C@H]2C)no1 [Example 1432] |  | 2.1 µM | 7.7 µM |  | 20 µM |  |
| C[C@@H]1CN(c2cc(=O)n(C)c3ccc(C#N)nc23)[C@@H](C)CN1Cc1noc2ccccc12 [Example 1433] |  | 2.5 µM | 2.8 µM |  | 13 µM |  |
| C[C@@H]1CN(c2cc(=O)n(C)c3ccc(C#N)nc23)[C@@H](C)CN1Cc1coc(-c2cccs2)n1 [Example 1434] |  | 2.1 µM | 0.96 µM |  | 21 µM |  |
| CCC(c1ccc(OCC2CC2)cc1)N1C[C@H](C)N(c2cc(=O)n(C)c3ccc(C#N)nc23)C[C@H]1C (stereo partly drawn) [Example 1439, 8-((2S,5R)-4-(1-(4-(cyclopropylmethoxy)phenyl)propyl)-2,5-dimethylpiperazin-1-yl)-5-methyl-6-oxo-5,6-dihydro-1,5-naphthyridine-2-carbonitrile] |  | 0.2 µM | 0.65 µM |  | 0.25 µM |  |
| C[C@@H]1CN(c2cc(=O)n(C)c3ccc(C#N)nc23)[C@@H](C)CN1C1(c2ccc(F)cc2)CC1 [Example 1454, 8-((2S,5R)-4-(1-(4-fluorophenyl)cyclopropyl)-2,5-dimethylpiperazin-1-yl)-5-methyl-6-oxo-5,6-dihydro-1,5-naphthyridine-2-carbonitrile] |  | 1.6 µM | 45 µM |  | 10 µM |  |
